{"source": "patent US8440710B2", "about": "“HSL inhibitors useful in the treatment of diabetes” (Hoffmann-La Roche Inc., priority 2009, dated 2013)", "target": "T1, human HSL (Homo sapiens, UniProt Q05469)", "T1 construct": "generate a full length human HSL ORF with a 3′-His6 tag; made in house; host or cells: High 5 insect cells (baculovirus, pFast-BAC)", "T1 sequence (Q05469 1-1076)": "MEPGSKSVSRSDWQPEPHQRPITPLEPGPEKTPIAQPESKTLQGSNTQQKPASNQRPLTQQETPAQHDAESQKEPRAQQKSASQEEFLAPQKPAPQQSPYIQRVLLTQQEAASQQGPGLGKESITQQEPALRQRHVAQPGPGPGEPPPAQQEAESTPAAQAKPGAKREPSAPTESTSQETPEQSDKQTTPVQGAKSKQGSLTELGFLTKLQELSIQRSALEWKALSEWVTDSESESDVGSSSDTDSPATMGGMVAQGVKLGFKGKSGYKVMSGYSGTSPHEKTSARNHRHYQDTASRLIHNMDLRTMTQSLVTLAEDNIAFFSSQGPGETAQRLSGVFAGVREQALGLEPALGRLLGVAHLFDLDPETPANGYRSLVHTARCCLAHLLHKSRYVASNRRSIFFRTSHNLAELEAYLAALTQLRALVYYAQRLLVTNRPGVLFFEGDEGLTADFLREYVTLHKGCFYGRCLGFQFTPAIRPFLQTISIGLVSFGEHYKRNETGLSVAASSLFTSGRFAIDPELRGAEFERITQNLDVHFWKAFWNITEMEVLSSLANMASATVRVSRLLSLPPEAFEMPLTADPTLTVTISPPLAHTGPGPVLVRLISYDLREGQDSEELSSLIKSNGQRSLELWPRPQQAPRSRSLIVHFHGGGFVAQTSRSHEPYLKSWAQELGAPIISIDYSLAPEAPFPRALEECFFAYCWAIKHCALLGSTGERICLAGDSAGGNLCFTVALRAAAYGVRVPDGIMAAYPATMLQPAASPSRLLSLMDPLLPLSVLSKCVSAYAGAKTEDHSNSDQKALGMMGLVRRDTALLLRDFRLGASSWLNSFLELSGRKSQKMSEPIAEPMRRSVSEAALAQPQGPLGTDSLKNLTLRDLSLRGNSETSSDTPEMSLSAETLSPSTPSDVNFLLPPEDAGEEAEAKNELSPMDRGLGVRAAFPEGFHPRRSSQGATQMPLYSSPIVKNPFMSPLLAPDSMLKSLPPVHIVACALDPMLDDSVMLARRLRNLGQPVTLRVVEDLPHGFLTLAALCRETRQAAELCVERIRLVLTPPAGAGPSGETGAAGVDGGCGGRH", "assay": "Human Hormone-Sensitive Lipase (HSL) enzyme inhibition assay (colorimetric, DMPT substrate)", "assay_type": "biochemical", "details": "human full length HSL-His6, 2,3-dimercapto-1-propanol tributyrate substrate, 37° C. 20 minutes, absorbance at 405 nm; read-out: HSL hum IC50", "outline": "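Full-length human HSL with C-terminal His6, expressed in baculovirus-infected High 5 cells and Ni-NTA purified, was added (15 ug/ml stock) to 1.5 mM DMPT in 100 mM MOPS pH 7.2, 0.2 mg/ml fatty acid-free BSA containing compound. After 20 min at 37 °C, DTNB with SDS/Triton X-100 was added; A405 read after 15 min at RT.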"}
{"compound": "CCCOC[C@]1(O)CC[C@]2(CCN(c3ccc(O[C@@H](C)C(F)(F)F)cc3)C2=O)CC1", "note": "[Example 269, (5α,8α)-8-Hydroxy-8-propoxymethyl-2-[4-((S)-2,2,2-trifluoro-1-methyl-ethoxy)-phenyl]-2-aza-spiro[4.5]decan-1-one]", "values": [{"measurement": "IC50", "value": 10, "unit": "nM"}]}
{"compound": "CCCOC[C@]1(O)CC[C@]2(CCN(c3ccc(O[C@H](C)C(F)(F)F)cc3)C2=O)CC1", "note": "[Example 270, (5α,8α)-8-Hydroxy-8-propoxymethyl-2-[4-((R)-2,2,2-trifluoro-1-methyl-ethoxy)-phenyl]-2-aza-spiro[4.5]decan-1-one]", "values": [{"measurement": "IC50", "value": 10, "unit": "nM"}]}
{"compound": "CCOC[C@]1(O)CC[C@]2(CCN(c3ccc(C4CC4)cc3)C2=O)CC1", "note": "[Example 271, (5α,8α)-2-(4-Cyclopropyl-phenyl)-8-ethoxymethyl-8-hydroxy-2-aza-spiro[4.5]decan-1-one]", "values": [{"measurement": "IC50", "value": 30, "unit": "nM"}]}
{"compound": "CCCOC[C@]1(O)CC[C@]2(CCN(c3ccc(C4CC4)cc3)C2=O)CC1", "note": "[Example 272, (5α,8α)-2-(4-Cyclopropyl-phenyl)-8-hydroxy-8-propoxymethyl-2-aza-spiro[4.5]decan-1-one]", "values": [{"measurement": "IC50", "value": 20, "unit": "nM"}]}
{"compound": "O=C1N(c2ccc(OCC(F)(F)F)cc2)CC[C@]12CC[C@@](O)(COCC1CCCC1)CC2", "note": "[Example 273, (5α,8α)-8-[(Cyclopentylmethoxy)methyl]-8-hydroxy-2-[4-(2,2,2-trifluoro-ethoxy)-phenyl]-2-aza-spiro[4.5]decan-1-one]", "values": [{"measurement": "IC50", "value": 20, "unit": "nM"}]}
{"compound": "CC(C)(C)COC[C@]1(O)CC[C@]2(CCN(c3ccc(OCC(F)(F)F)cc3)C2=O)CC1", "note": "[Example 274, (5α,8α)-8-(2,2-Dimethyl-propoxymethyl)-8-hydroxy-2-[4-(2,2,2-trifluoro-ethoxy)-phenyl]-2-aza-spiro[4.5]decan-1-one]", "values": [{"measurement": "IC50", "value": 20, "unit": "nM"}]}
{"compound": "CCS(=O)(=O)C[C@]1(O)CC[C@]2(CCN(c3ccc(OCC(F)(F)F)cc3)C2=O)CC1", "note": "[Example 275, (5α,8α)-8-Ethanesulfonylmethyl-8-hydroxy-2-[4-(2,2,2-trifluoro-ethoxy)-phenyl]-2-aza-spiro[4.5]decan-1-one]", "values": [{"measurement": "IC50", "value": 80, "unit": "nM"}]}
{"compound": "CC(C)OC[C@]1(O)CC[C@]2(CCN(c3ccc(OCC(F)(F)F)cc3)C2=O)CC1", "note": "[Example 276, (5α,8α)-8-Hydroxy-8-isopropoxymethyl-2-[4-(2,2,2-trifluoro-ethoxy)-phenyl]-2-aza-spiro[4.5]decan-1-one]", "values": [{"measurement": "IC50", "value": 10, "unit": "nM"}]}
{"compound": "O=C1N(c2ccc(OCC(F)(F)F)cc2)CC[C@]12CC[C@@](O)(COCCC(F)(F)F)CC2", "note": "[Example 277, (5α,8α)-8-Hydroxy-2-[4-(2,2,2-trifluoro-ethoxy)-phenyl]-8-(3,3,3-trifluoro-propoxymethyl)-2-aza-spiro[4.5]decan-1-one]", "values": [{"measurement": "IC50", "value": 40, "unit": "nM"}]}
{"compound": "O=C1N(c2ccc(OCC(F)(F)F)cc2)CC[C@]12CC[C@](O)(COc1ccccn1)CC2", "note": "[Example 278, (5α,8β)-8-Hydroxy-8-(pyridin-2-yloxymethyl)-2-[4-(2,2,2-trifluoro-ethoxy)-phenyl]-2-aza-spiro[4.5]decan-1-one]", "values": [{"measurement": "IC50", "value": 20, "unit": "nM"}]}
{"compound": "O=C1N(c2ccc(OCC(F)(F)F)nc2)CC[C@]12CC[C@@](O)(COCC(F)(F)F)CC2", "note": "[Example 279, (5α,8α)-8-Hydroxy-8-(2,2,2-trifluoro-ethoxymethyl)-2-[6-(2,2,2-trifluoro-ethoxy)-pyridin-3-yl]-2-aza-spiro[4.5]decan-1-one]", "values": [{"measurement": "IC50", "value": 20, "unit": "nM"}]}
{"compound": "C[C@H](Oc1ccc(N2CC[C@]3(CC[C@](O)(COCC(F)(F)F)CC3)C2=O)cn1)C(F)(F)F", "note": "[Example 280, (5α,8β)-8-Hydroxy-8-(2,2,2-trifluoro-ethoxymethyl)-2-[6-((S)-2,2,2-trifluoro-1-methyl-ethoxy)-pyridin-3-yl]-2-aza-spiro[4.5]decan-1-one]", "values": [{"measurement": "IC50", "value": 980, "unit": "nM"}]}
{"compound": "C[C@H](Oc1ccc(N2CC[C@]3(CC[C@@](O)(COCC(F)(F)F)CC3)C2=O)cn1)C(F)(F)F", "note": "[Example 281, (5α,8α)-8-Hydroxy-8-(2,2,2-trifluoro-ethoxymethyl)-2-[6-((S)-2,2,2-trifluoro-1-methyl-ethoxy)-pyridin-3-yl]-2-aza-spiro[4.5]decan-1-one]", "values": [{"measurement": "IC50", "value": 10, "unit": "nM"}]}
{"compound": "C[C@H](Oc1ccc(N2CC[C@]3(CC[C@](O)(COCC(F)(F)F)CC3)C2=O)cc1)C(F)(F)F", "note": "[Example 282, (5α,8β)-8-Hydroxy-8-(2,2,2-trifluoro-ethoxymethyl)-2-[4-((S)-2,2,2-trifluoro-1-methyl-ethoxy)-phenyl]-2-aza-spiro[4.5]decan-1-one]", "values": [{"measurement": "IC50", "value": 400, "unit": "nM"}]}
{"compound": "C[C@H](Oc1ccc(N2CC[C@]3(CC[C@@](O)(COCC(F)(F)F)CC3)C2=O)cc1)C(F)(F)F", "note": "[Example 283, (5α,8α)-8-Hydroxy-8-(2,2,2-trifluoro-ethoxymethyl)-2-[4-((S)-2,2,2-trifluoro-1-methyl-ethoxy)-phenyl]-2-aza-spiro[4.5]decan-1-one]", "values": [{"measurement": "IC50", "value": 10, "unit": "nM"}]}
{"compound": "C[C@@H](Oc1ccc(N2CC[C@]3(CC[C@](O)(COCC(F)(F)F)CC3)C2=O)cc1)C(F)(F)F", "note": "[Example 284, (5α,8β)-8-Hydroxy-8-(2,2,2-trifluoro-ethoxymethyl)-2-[4-((R)-2,2,2-trifluoro-1-methyl-ethoxy)-phenyl]-2-aza-spiro[4.5]decan-1-one]", "values": [{"measurement": "IC50", "value": 360, "unit": "nM"}]}
{"compound": "C[C@@H](Oc1ccc(N2CC[C@]3(CC[C@@](O)(COCC(F)(F)F)CC3)C2=O)cc1)C(F)(F)F", "note": "[Example 285, (5α,8α)-8-Hydroxy-8-(2,2,2-trifluoro-ethoxymethyl)-2-[4-((R)-2,2,2-trifluoro-1-methyl-ethoxy)-phenyl]-2-aza-spiro[4.5]decan-1-one]", "values": [{"measurement": "IC50", "value": 10, "unit": "nM"}]}
{"compound": "O=C1N(c2ccc(CC(F)(F)F)cc2)CC[C@]12CC[C@](O)(COCC(F)(F)F)CC2", "note": "[Example 286, (5α,8β)-8-Hydroxy-8-(2,2,2-trifluoro-ethoxymethyl)-2-[4-(2,2,2-trifluoro-ethyl)-phenyl]-2-aza-spiro[4.5]decan-1-one]", "values": [{"measurement": "IC50", "value": 190, "unit": "nM"}]}
{"compound": "O=C1N(c2ccc(CC(F)(F)F)cc2)CC[C@]12CC[C@@](O)(COCC(F)(F)F)CC2", "note": "[Example 287, (5α,8α)-8-Hydroxy-8-(2,2,2-trifluoro-ethoxymethyl)-2-[4-(2,2,2-trifluoro-ethyl)-phenyl]-2-aza-spiro[4.5]decan-1-one]", "values": [{"measurement": "IC50", "value": 10, "unit": "nM"}]}
{"compound": "O=C1N(c2ccc(C3CC3)cc2)CC[C@]12CC[C@](O)(COCC(F)(F)F)CC2", "note": "[Example 288, (5α,8β)-2-(4-Cyclopropyl-phenyl)-8-hydroxy-8-(2,2,2-trifluoro-ethoxymethyl)-2-aza-spiro[4.5]decan-1-one]", "values": [{"measurement": "IC50", "value": 800, "unit": "nM"}]}
{"compound": "O=C1N(c2ccc(C3CC3)cc2)CC[C@]12CC[C@@](O)(COCC(F)(F)F)CC2", "note": "[Example 289, (5α,8α)-2-(4-Cyclopropyl-phenyl)-8-hydroxy-8-(2,2,2-trifluoro-ethoxymethyl)-2-aza-spiro[4.5]decan-1-one]", "values": [{"measurement": "IC50", "value": 20, "unit": "nM"}]}
{"compound": "O=C1N(c2ccc(OCC(F)(F)F)cc2)CC[C@]12CC[C@@](O)(COCCC1CC1)CC2", "note": "[Example 290, (5α,8α)-8-(2-Cyclopropyl-ethoxymethyl)-8-hydroxy-2-[4-(2,2,2-trifluoro-ethoxy)-phenyl]-2-aza-spiro[4.5]decan-1-one]", "values": [{"measurement": "IC50", "value": 20, "unit": "nM"}]}
{"compound": "CC(C)CCOC[C@]1(O)CC[C@]2(CCN(c3ccc(OCC(F)(F)F)cc3)C2=O)CC1", "note": "[Example 291, (5α,8α)-8-Hydroxy-8-(3-methyl-butoxymethyl)-2-[4-(2,2,2-trifluoro-ethoxy)-phenyl]-2-aza-spiro[4.5]decan-1-one]", "values": [{"measurement": "IC50", "value": 20, "unit": "nM"}]}
{"compound": "CC(OC[C@]1(O)CC[C@]2(CCN(c3ccc(OCC(F)(F)F)cc3)C2=O)CC1)C(F)(F)F", "note": "(stereo partly drawn) [Example 292, (5α,8α)-8-Hydroxy-2-[4-(2,2,2-trifluoro-ethoxy)-phenyl]-8-(2,2,2-trifluoro-1-methyl-ethoxymethyl)-2-aza-spiro[4.5]decan-1-one]", "values": [{"measurement": "IC50", "value": 10, "unit": "nM"}]}
{"compound": "CSC[C@]1(O)CC[C@]2(CCN(c3ccc(OCC(F)(F)F)cc3)C2=O)CC1", "note": "[Example 293, (5α,8α)-8-Hydroxy-8-methylsulfanylmethyl-2-[4-(2,2,2-trifluoro-ethoxy)-phenyl]-2-aza-spiro[4.5]decan-1-one]", "values": [{"measurement": "IC50", "value": 20, "unit": "nM"}]}
{"compound": "CCCSC[C@]1(O)CC[C@]2(CCN(c3ccc(OCC(F)(F)F)cc3)C2=O)CC1", "note": "[Example 294, (5α,8α)-8-Hydroxy-8-propylsulfanylmethyl-2-[4-(2,2,2-trifluoro-ethoxy)-phenyl]-2-aza-spiro[4.5]decan-1-one]", "values": [{"measurement": "IC50", "value": 20, "unit": "nM"}]}
